Results reported in patent US12522607B2, “Substituted pyrazolo[3,4-d]pyrimidines as wee-1 inhibitors” (WIGEN BIOMEDICINE TECHNOLOGY (SHANGHAI) CO., LTD., priority 2020, dated 2026).

Tests used:
HT29 cells = assay: Antiproliferative activity against HT29 cells (Cell Titer-Lumi, ATP content); format: cell-based; settings: Homo sapiens, HT-29, 72 after compound addition, read-out: HT-29 cells Anti-proliferative activity (IC50 for the inhibition against HT-29 cell growth)
Method: Example 343. Assay for Antiproliferative Activity Against HT29 Cells
3000 HT29 cells were seed in a 384-well plate (Fisher 142762). After the cells adhered to the wall overnight, the compounds diluted in a gradient were added. 72 later, Cell Titer-Lumi (Beyotime C0068XL) was added to determine the content of ATP in the cells. The growth of the cells was evaluated, and the IC50 for the inhibition of the compounds against cell growth was calculated.

Wee-1 kinase = target: T1, Wee-1 kinase (Homo sapiens, UniProt P30291); assay: Inhibitory activity against Wee-1 kinase (Lanthra Screen Wee-1 kinase kit, Tracer 178); format: binding; settings: Wee-1 kinase 5 nM, Tracer 178 50 nM, 1 h room temperature
T1 construct: purchased Invitrogen
T1 sequence (P30291 whole entry): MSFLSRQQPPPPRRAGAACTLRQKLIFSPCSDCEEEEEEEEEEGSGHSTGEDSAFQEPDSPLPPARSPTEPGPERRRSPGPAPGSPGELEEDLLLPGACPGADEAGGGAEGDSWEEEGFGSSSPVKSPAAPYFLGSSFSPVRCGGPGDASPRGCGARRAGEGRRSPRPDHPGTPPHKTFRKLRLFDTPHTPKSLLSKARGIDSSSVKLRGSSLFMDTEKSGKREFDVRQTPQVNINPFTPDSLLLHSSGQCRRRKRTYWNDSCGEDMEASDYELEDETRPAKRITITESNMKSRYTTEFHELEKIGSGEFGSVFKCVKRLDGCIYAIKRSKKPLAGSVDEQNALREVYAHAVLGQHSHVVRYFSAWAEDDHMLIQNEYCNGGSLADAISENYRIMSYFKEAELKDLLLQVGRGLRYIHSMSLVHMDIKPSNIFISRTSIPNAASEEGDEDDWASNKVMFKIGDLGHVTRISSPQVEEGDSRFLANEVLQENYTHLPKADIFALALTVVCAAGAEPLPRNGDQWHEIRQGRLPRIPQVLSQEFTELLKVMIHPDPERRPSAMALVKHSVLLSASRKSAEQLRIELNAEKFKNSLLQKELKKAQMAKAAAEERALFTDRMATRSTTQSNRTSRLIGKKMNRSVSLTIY
Method: Example 342. Assay for Inhibitory Activity of Compounds Against Wee-1 Kinase
The inhibitory activity of compounds against Wee-1 kinase was determined by using the Lanthra Screen Wee-1 kinase kit (Invitrogen). 5 μL of the compound diluted in a gradient with DMSO, 5 μL. of Wee-1 kinase (at a final concentration of 5 nM), 5 μL of an Eu-Anti-GST antibody (at a final concentration of 2 nM) mixture and 5 μL of kinase Tracer 178 (at a final concentration of 50 nM) were mixed well. The plate was read after incubation at room temperature for one hour. For comparison with the DMSO solvent control group, IC50 for the inhibition activity of the compounds against Wee-1 kinase was calculated.

Row | Compound | IC50 (HT29 cells) [nM] | IC50 (Wee-1 kinase) [nM]
1 | C=CCn1c(=O)c2cnc(Nc3ccc(N4CCN(C)CC4)cc3)nc2n1-c1ccc(=O)n(C)n1 [Compound 1, 2-allyl-1-(1-methyl-6-oxo-1,6-dihydropyridazin-3-yl)-6-((4-(4-methylpiperazin-1-yl)phenyl)amino)-1,2-dihydro-3H-pyrazolo[3,4-d]pyrimidin-3-one] | > 3000 | > 100
2 | C=CCn1c(=O)c2cnc(Nc3ccc(N4CCN(C)CC4)cc3)nc2n1-c1ccc(=O)n(CC)n1 [Compound 2] | > 3000 | > 100
3 | C=CCn1c(=O)c2cnc(Nc3ccc(N4CCN(C)CC4)cc3)nc2n1-c1ccc(=O)n(CC(C)C)n1 [Compound 4] | 1000 to 3000 | 30 to 100
4 | C=CCn1c(=O)c2cnc(Nc3ccc(N4CCN(C)CC4)cc3)nc2n1-c1ccc(=O)n(C(C)CC)n1 (centres unmarked) [Compound 5] | ≤ 1000 | ≤ 30
5 | C=CCn1c(=O)c2cnc(Nc3ccc(N4CCN(C)CC4)cc3)nc2n1-c1ccc(=O)n(CC(C)(C)C)n1 [Compound 6] | 1000 to 3000 | 30 to 100
6 | C=CCn1c(=O)c2cnc(Nc3ccc(N4CCN(C)CC4)cc3)nc2n1-c1ccc(=O)n(CC(F)F)n1 [Compound 7] | 1000 to 3000 | 30 to 100
7 | C=CCn1c(=O)c2cnc(Nc3ccc(N4CCN(C)CC4)cc3)nc2n1-c1ccc(=O)n(CC(F)(F)F)n1 [Compound 8] | 1000 to 3000 | 30 to 100
8 | C=CCn1c(=O)c2cnc(Nc3ccc(N4CCN(C)CC4)cc3)nc2n1-c1ccc(=O)n(C(C)(C)C)n1 [Compound 9] | ≤ 1000 | ≤ 30
9 | C=CCn1c(=O)c2cnc(Nc3ccc(N4CCN(C)CC4)cc3)nc2n1-c1ccc(=O)n(C(C)(C)C(F)(F)F)n1 [Compound 10] | ≤ 1000 | ≤ 30
10 | C=CCn1c(=O)c2cnc(Nc3ccc(N4CCN(C)CC4)cc3)nc2n1-c1ccc(=O)n(C2CC2)n1 [Compound 11] | ≤ 1000 | ≤ 30
11 | C=CCn1c(=O)c2cnc(Nc3ccc(N4CCN(C)CC4)cc3)nc2n1-c1ccc(=O)n(C2CCC2)n1 [Compound 12] | ≤ 1000 | ≤ 30
12 | C=CCn1c(=O)c2cnc(Nc3ccc(N4CCN(C)CC4)cc3)nc2n1-c1ccc(=O)n(C2CCCC2)n1 [Compound 13] | ≤ 1000 | ≤ 30
13 | C=CCn1c(=O)c2cnc(Nc3ccc(N4CCN(C)CC4)cc3)nc2n1-c1ccc(=O)n(C2COC2)n1 [Compound 14] | > 3000 | 30 to 100
14 | C=CCn1c(=O)c2cnc(Nc3ccc(N4CCN(C)CC4)cc3)nc2n1-c1ccc(=O)n(C2CC(F)(F)C2)n1 [Compound 15] | 1000 to 3000 | 30 to 100
15 | C=CCn1c(=O)c2cnc(Nc3ccc(N4CCN(C)CC4)cc3)nc2n1-c1ccc(=O)n(CC2CC2)n1 [Compound 16] | 1000 to 3000 | 30 to 100
16 | C=CCn1c(=O)c2cnc(Nc3ccc(N4CCN(C)CC4)cc3)nc2n1-c1ccc(=O)n(CC2CCC2)n1 [Compound 17] | 1000 to 3000 | 30 to 100
17 | C=CCn1c(=O)c2cnc(Nc3ccc(N4CCN(C)CC4)cc3)nc2n1-c1ccc(=O)n(C(C)(C)CO)n1 [Compound 18] | 1000 to 3000 | ≤ 30
18 | C=CCn1c(=O)c2cnc(Nc3ccc(N4CCN(C)CC4)cc3)nc2n1-c1ccc(=O)n(C(C)(C)COC)n1 [Compound 19] | 1000 to 3000 | ≤ 30
19 | C=CCn1c(=O)c2cnc(Nc3ccc(N4CCN(C)CC4)cc3)nc2n1-c1ccc(=O)n(C(C)C)c1 [Compound 20] | ≤ 1000 | ≤ 30
20 | C=CCn1c(=O)c2cnc(Nc3ccc(N4CCN(C)CC4)cc3)nc2n1-c1ccc(=O)n(C(C)(C)C)c1 [Compound 21] | ≤ 1000 | ≤ 30
21 | C=CCn1c(=O)c2cnc(Nc3ccc(N4CCN(C)CC4)cc3)nc2n1-c1cc(C)c(=O)n(C(C)C)n1 [Compound 22] | ≤ 1000 | ≤ 30
22 | C=CCn1c(=O)c2cnc(Nc3ccc(N4CCN(C)CC4)cc3)nc2n1-c1cc(OC)c(=O)n(C(C)C)n1 [Compound 23] | > 3000 | ≤ 30
23 | C=CCn1c(=O)c2cnc(Nc3ccc(N4CCN(C)CC4)cc3)nc2n1-c1cc(F)c(=O)n(C(C)C)c1 [Compound 24] | ≤ 1000 | ≤ 30
24 | C=CCn1c(=O)c2cnc(Nc3ccc(N4CCN(C)CC4)cc3)nc2n1-c1cc(C(F)(F)F)c(=O)n(C(C)C)c1 [Compound 25] | ≤ 1000 | ≤ 30
25 | C=CCn1c(=O)c2cnc(Nc3ccc(N4CCN(C)CC4)cc3)nc2n1-c1cc(C(F)F)c(=O)n(C(C)C)c1 [Compound 26] | ≤ 1000 | ≤ 30
26 | C=CCn1c(=O)c2cnc(Nc3ccc(N4CCN(C)CC4)cc3)nc2n1-c1cc(OC)c(=O)n(C(C)C)c1 [Compound 27] | > 3000 | 30 to 100

Row | Compound | IC50 (HT29 cells) [nM] | IC50 (Wee-1 kinase) [nM]
27 | C=CCn1c(=O)c2cnc(Nc3ccc(N4CCN(C)CC4)cc3)nc2n1-c1cc(C#N)c(=O)n(C(C)C)c1 [Compound 28] | > 3000 | 30 to 100
28 | C=CCn1c(=O)c2cnc(Nc3ccc(N4CCN(C)CC4)cc3)nc2n1-c1cn(C(C)C)c(=O)cc1C [Compound 29] | ≤ 1000 | ≤ 30
29 | C=CCn1c(=O)c2cnc(Nc3ccc(N4CCN(C)CC4)cc3)nc2n1-c1cn(C(C)C)c(=O)cc1OC [Compound 30] | > 3000 | 30 to 100
30 | C=CCn1c(=O)c2cnc(Nc3ccc(N4CCNCC4)cc3)nc2n1-c1ccc(=O)n(C(C)C)n1 [Compound 31] | ≤ 1000 | ≤ 30
31 | C=CCn1c(=O)c2cnc(Nc3ccc(N4CCN(CC)CC4)cc3)nc2n1-c1ccc(=O)n(C(C)C)n1 [Compound 32] | ≤ 1000 | ≤ 30
32 | C=CCn1c(=O)c2cnc(Nc3ccc(N4CCN(C5CC5)CC4)cc3)nc2n1-c1ccc(=O)n(C(C)C)n1 [Compound 33] | ≤ 1000 | ≤ 30
33 | C=CCn1c(=O)c2cnc(Nc3ccc(N4CCN(C5CCC5)CC4)cc3)nc2n1-c1ccc(=O)n(C(C)C)n1 [Compound 34] | ≤ 1000 | ≤ 30
34 | C=CCn1c(=O)c2cnc(Nc3ccc(N4CCN(C5COC5)CC4)cc3)nc2n1-c1ccc(=O)n(C(C)C)n1 [Compound 35] | ≤ 1000 | ≤ 30
35 | C=CCn1c(=O)c2cnc(Nc3ccc(N4CCN(C5CCN(C)CC5)CC4)cc3)nc2n1-c1ccc(=O)n(C(C)C)n1 [Compound 36] | ≤ 1000 | ≤ 30
36 | C=CCn1c(=O)c2cnc(Nc3ccc(N4CCN(CCF)CC4)cc3)nc2n1-c1ccc(=O)n(C(C)C)n1 [Compound 37] | ≤ 1000 | ≤ 30
37 | C=CCn1c(=O)c2cnc(Nc3ccc(N4CCN(CC(F)F)CC4)cc3)nc2n1-c1ccc(=O)n(C(C)C)n1 [Compound 38] | ≤ 1000 | ≤ 30
38 | C=CCn1c(=O)c2cnc(Nc3ccc(N4CCN(CC(F)(F)F)CC4)cc3)nc2n1-c1ccc(=O)n(C(C)C)n1 [Compound 39] | ≤ 1000 | ≤ 30
39 | C=CCn1c(=O)c2cnc(Nc3ccc(N4CCN(CC#N)CC4)cc3)nc2n1-c1ccc(=O)n(C(C)C)n1 [Compound 40] | ≤ 1000 | ≤ 30
40 | C=CCn1c(=O)c2cnc(Nc3ccc(N4CCNCC4)c(C)c3)nc2n1-c1ccc(=O)n(C(C)C)n1 [Compound 41] | ≤ 1000 | ≤ 30
41 | C=CCn1c(=O)c2cnc(Nc3ccc(N4CCN(C)CC4)c(C)c3)nc2n1-c1ccc(=O)n(C(C)C)n1 [Compound 42] | ≤ 1000 | ≤ 30
42 | C=CCn1c(=O)c2cnc(Nc3ccc(N4CCN(C)CC4)c(F)c3)nc2n1-c1ccc(=O)n(C(C)C)n1 [Compound 44] | ≤ 1000 | ≤ 30
43 | C=CCn1c(=O)c2cnc(Nc3ccc(N4CCNCC4)c(Cl)c3)nc2n1-c1ccc(=O)n(C(C)C)c1 [Compound 45] | ≤ 1000 | ≤ 30
44 | C=CCn1c(=O)c2cnc(Nc3ccc(N4CCN(C)CC4)c(Cl)c3)nc2n1-c1ccc(=O)n(C(C)C)c1 [Compound 46] | ≤ 1000 | ≤ 30
45 | C=CCn1c(=O)c2cnc(Nc3ccc(N4CCNCC4)c(OC)c3)nc2n1-c1ccc(=O)n(C(C)C)c1 [Compound 47] | ≤ 1000 | ≤ 30
46 | C=CCn1c(=O)c2cnc(Nc3ccc(N4CCN(C)CC4)c(OC)c3)nc2n1-c1ccc(=O)n(C(C)C)c1 [Compound 48] | ≤ 1000 | ≤ 30
47 | C=CCn1c(=O)c2cnc(Nc3ccc(N4CCNCC4)c(C(F)(F)F)c3)nc2n1-c1ccc(=O)n(C(C)C)c1 [Compound 49] | ≤ 1000 | ≤ 30
48 | C=CCn1c(=O)c2cnc(Nc3ccc(N4CCN(C)CC4)c(C(F)(F)F)c3)nc2n1-c1ccc(=O)n(C(C)C)c1 [Compound 50] | ≤ 1000 | ≤ 30
49 | C=CCn1c(=O)c2cnc(Nc3ccc(N4CCNCC4)c(CO)c3)nc2n1-c1ccc(=O)n(C(C)C)c1 [Compound 51] | 1000 to 3000 | 30 to 100
50 | C=CCn1c(=O)c2cnc(Nc3ccc(N4CCN(C)CC4)c(CO)c3)nc2n1-c1ccc(=O)n(C(C)C)n1 [Compound 52] | 1000 to 3000 | ≤ 30
51 | C=CCn1c(=O)c2cnc(Nc3ccc(N4CCNCC4)c(CC(F)(F)F)c3)nc2n1-c1ccc(=O)n(C(C)C)n1 [Compound 53] | ≤ 1000 | ≤ 30
52 | C=CCn1c(=O)c2cnc(Nc3ccc(N4CCN(C)CC4)c(CC(F)(F)F)c3)nc2n1-c1ccc(=O)n(C(C)C)n1 [Compound 54] | ≤ 1000 | ≤ 30
